{"source": "patent US7176313B2", "about": "“Anti acid-fast bacterial agent containing pyridonecarboxylic acids as active ingredient” (Daiichi Pharmaceutical Co., Ltd., priority 2000, dated 2007)"}
{"test_system": "M. intracellulare", "assay": "Antibacterial activity (MIC) against M. intracellulare", "format": "cell-based, Mycobacterium intracellulare", "details": "M. intracellulare N-294; Table 3", "experimental": "(§1) Antibacterial activity of the compounds of the invention was measured in accordance with the method described in the literature of Antimicrob. Agents and Chemother., 38, 2877 (1994), and the results are shown in Tables 3 to 8 in terms of MIC (μg/ml). In the tables, “OFLX” is an abbreviation of “OFLOXAIN”.", "units": {"MIC": "µg/mL"}}
{"smiles": "COc1c(N2CC3CCCNC3C2)c(F)cc2c(=O)c(C(=O)O)cn(C3CC3)c12", "note": "(stereo not shown) [Compd. 5]", "MIC": 1.56}
{"smiles": "COc1c(N2CC3CCCNC3C2)c(F)cc2c(=O)c(C(=O)O)cn([C@@H]3C[C@@H]3F)c12", "note": "(stereo partly shown) [Compd. 6]", "MIC": 0.78}
{"smiles": "COc1c(N2CC(N)C3(CC3)C2)c(F)cc2c(=O)c(C(=O)O)cn(C3CC3)c12", "note": "(stereo not shown) [Compd. 7]", "MIC": 0.78}
{"smiles": "COc1c(N2CC(N)C3(CC3)C2)c(F)cc2c(=O)c(C(=O)O)cn([C@@H]3C[C@@H]3F)c12", "note": "(stereo partly shown) [Compd. 8]", "MIC": 1.56}
{"test_system": "M. intracellulare", "assay": "Antibacterial activity (MIC) against M. intracellulare", "format": "cell-based, Mycobacterium intracellulare", "details": "M. intracellulare N-313; Table 3", "experimental": "as §1", "units": {"MIC": "µg/mL"}}
{"smiles": "COc1c(N2CC3CCCNC3C2)c(F)cc2c(=O)c(C(=O)O)cn(C3CC3)c12", "note": "(stereo not shown) [Compd. 5]", "MIC": 0.78}
{"smiles": "COc1c(N2CC3CCCNC3C2)c(F)cc2c(=O)c(C(=O)O)cn([C@@H]3C[C@@H]3F)c12", "note": "(stereo partly shown) [Compd. 6]", "MIC": 0.78}
{"smiles": "COc1c(N2CC(N)C3(CC3)C2)c(F)cc2c(=O)c(C(=O)O)cn(C3CC3)c12", "note": "(stereo not shown) [Compd. 7]", "MIC": 0.2}
{"smiles": "COc1c(N2CC(N)C3(CC3)C2)c(F)cc2c(=O)c(C(=O)O)cn([C@@H]3C[C@@H]3F)c12", "note": "(stereo partly shown) [Compd. 8]", "MIC": 0.39}
{"test_system": "M. intracellulare", "assay": "Antibacterial activity (MIC) against M. intracellulare", "format": "cell-based, Mycobacterium intracellulare", "details": "M. intracellulare N-338; Table 3", "experimental": "as §1", "units": {"MIC": "µg/mL"}}
{"smiles": "COc1c(N2CC3CCCNC3C2)c(F)cc2c(=O)c(C(=O)O)cn(C3CC3)c12", "note": "(stereo not shown) [Compd. 5]", "MIC": 1.56}
{"smiles": "COc1c(N2CC3CCCNC3C2)c(F)cc2c(=O)c(C(=O)O)cn([C@@H]3C[C@@H]3F)c12", "note": "(stereo partly shown) [Compd. 6]", "MIC": 1.56}
{"smiles": "COc1c(N2CC(N)C3(CC3)C2)c(F)cc2c(=O)c(C(=O)O)cn(C3CC3)c12", "note": "(stereo not shown) [Compd. 7]", "MIC": 0.39}
{"smiles": "COc1c(N2CC(N)C3(CC3)C2)c(F)cc2c(=O)c(C(=O)O)cn([C@@H]3C[C@@H]3F)c12", "note": "(stereo partly shown) [Compd. 8]", "MIC": 1.56}
{"test_system": "M. intracellulare", "assay": "Antibacterial activity (MIC) against M. intracellulare", "format": "cell-based, Mycobacterium intracellulare", "details": "M. intracellulare N-345; Table 3", "experimental": "as §1", "units": {"MIC": "µg/mL"}}
{"smiles": "COc1c(N2CC3CCCNC3C2)c(F)cc2c(=O)c(C(=O)O)cn(C3CC3)c12", "note": "(stereo not shown) [Compd. 5]", "MIC": 3.13}
{"smiles": "COc1c(N2CC3CCCNC3C2)c(F)cc2c(=O)c(C(=O)O)cn([C@@H]3C[C@@H]3F)c12", "note": "(stereo partly shown) [Compd. 6]", "MIC": 3.13}
{"smiles": "COc1c(N2CC(N)C3(CC3)C2)c(F)cc2c(=O)c(C(=O)O)cn(C3CC3)c12", "note": "(stereo not shown) [Compd. 7]", "MIC": 1.56}
{"smiles": "COc1c(N2CC(N)C3(CC3)C2)c(F)cc2c(=O)c(C(=O)O)cn([C@@H]3C[C@@H]3F)c12", "note": "(stereo partly shown) [Compd. 8]", "MIC": 1.56}
{"test_system": "Mycobacterium tuberculosis (RFP sensitive)", "assay": "Antibacterial activity (MIC) against Mycobacterium tuberculosis (RFP sensitive)", "format": "cell-based", "details": "M. tuberculosis H37Rv; Table 5", "units": {"MIC": "µg/mL"}}
{"smiles": "COc1c(N2CC3CCCNC3C2)c(F)cc2c(=O)c(C(=O)O)cn(C3CC3)c12", "note": "(stereo not shown) [Compd. 5]", "MIC": 0.10}
{"smiles": "COc1c(N2CC3CCCNC3C2)c(F)cc2c(=O)c(C(=O)O)cn([C@@H]3C[C@@H]3F)c12", "note": "(stereo partly shown) [Compd. 6]", "MIC": 0.10}
{"smiles": "COc1c(N2CC(N)C3(CC3)C2)c(F)cc2c(=O)c(C(=O)O)cn([C@@H]3C[C@@H]3F)c12", "note": "(stereo partly shown) [Compd. 8]", "MIC": 0.10}
{"test_system": "Mycobacterium tuberculosis (RFP sensitive)", "assay": "Antibacterial activity (MIC) against Mycobacterium tuberculosis (RFP sensitive)", "format": "cell-based", "details": "M. tuberculosis Kurono; Table 5", "units": {"MIC": "µg/mL"}}
{"smiles": "COc1c(N2CC3CCCNC3C2)c(F)cc2c(=O)c(C(=O)O)cn(C3CC3)c12", "note": "(stereo not shown) [Compd. 5]", "MIC": 0.05}
{"smiles": "COc1c(N2CC3CCCNC3C2)c(F)cc2c(=O)c(C(=O)O)cn([C@@H]3C[C@@H]3F)c12", "note": "(stereo partly shown) [Compd. 6]", "MIC": 0.05}
{"smiles": "COc1c(N2CC(N)C3(CC3)C2)c(F)cc2c(=O)c(C(=O)O)cn([C@@H]3C[C@@H]3F)c12", "note": "(stereo partly shown) [Compd. 8]", "MIC": 0.05}
{"test_system": "Mycobacterium tuberculosis (RFP sensitive)", "assay": "Antibacterial activity (MIC) against Mycobacterium tuberculosis (RFP sensitive)", "format": "cell-based", "details": "M. tuberculosis No. 40; Table 5", "units": {"MIC": "µg/mL"}}
{"smiles": "COc1c(N2CC3CCCNC3C2)c(F)cc2c(=O)c(C(=O)O)cn(C3CC3)c12", "note": "(stereo not shown) [Compd. 5]", "MIC": 0.10}
{"smiles": "COc1c(N2CC3CCCNC3C2)c(F)cc2c(=O)c(C(=O)O)cn([C@@H]3C[C@@H]3F)c12", "note": "(stereo partly shown) [Compd. 6]", "MIC": 0.10}
{"smiles": "COc1c(N2CC(N)C3(CC3)C2)c(F)cc2c(=O)c(C(=O)O)cn([C@@H]3C[C@@H]3F)c12", "note": "(stereo partly shown) [Compd. 8]", "MIC": 0.10}
{"test_system": "Mycobacterium tuberculosis (RFP sensitive)", "assay": "Antibacterial activity (MIC) against Mycobacterium tuberculosis (RFP sensitive)", "format": "cell-based", "details": "M. tuberculosis No. 41; Table 5", "units": {"MIC": "µg/mL"}}
{"smiles": "COc1c(N2CC3CCCNC3C2)c(F)cc2c(=O)c(C(=O)O)cn(C3CC3)c12", "note": "(stereo not shown) [Compd. 5]", "MIC": 0.025}
{"smiles": "COc1c(N2CC3CCCNC3C2)c(F)cc2c(=O)c(C(=O)O)cn([C@@H]3C[C@@H]3F)c12", "note": "(stereo partly shown) [Compd. 6]", "MIC": 0.013}
{"smiles": "COc1c(N2CC(N)C3(CC3)C2)c(F)cc2c(=O)c(C(=O)O)cn([C@@H]3C[C@@H]3F)c12", "note": "(stereo partly shown) [Compd. 8]", "MIC": 0.006}
{"test_system": "Mycobacterium tuberculosis (RFP sensitive)", "assay": "Antibacterial activity (MIC) against Mycobacterium tuberculosis (RFP sensitive)", "format": "cell-based", "details": "M. tuberculosis No. 43; Table 5", "units": {"MIC": "µg/mL"}}
{"smiles": "COc1c(N2CC3CCCNC3C2)c(F)cc2c(=O)c(C(=O)O)cn(C3CC3)c12", "note": "(stereo not shown) [Compd. 5]", "MIC": 0.78}
{"smiles": "COc1c(N2CC3CCCNC3C2)c(F)cc2c(=O)c(C(=O)O)cn([C@@H]3C[C@@H]3F)c12", "note": "(stereo partly shown) [Compd. 6]", "MIC": 0.78}
{"smiles": "COc1c(N2CC(N)C3(CC3)C2)c(F)cc2c(=O)c(C(=O)O)cn([C@@H]3C[C@@H]3F)c12", "note": "(stereo partly shown) [Compd. 8]", "MIC": 0.78}
{"test_system": "Mycobacterium tuberculosis (RFP sensitive)", "assay": "Antibacterial activity (MIC) against Mycobacterium tuberculosis (RFP sensitive)", "format": "cell-based", "details": "M. tuberculosis No. 68; Table 5", "units": {"MIC": "µg/mL"}}
{"smiles": "COc1c(N2CC3CCCNC3C2)c(F)cc2c(=O)c(C(=O)O)cn(C3CC3)c12", "note": "(stereo not shown) [Compd. 5]", "MIC": 0.10}
{"smiles": "COc1c(N2CC3CCCNC3C2)c(F)cc2c(=O)c(C(=O)O)cn([C@@H]3C[C@@H]3F)c12", "note": "(stereo partly shown) [Compd. 6]", "MIC": 0.05}
{"smiles": "COc1c(N2CC(N)C3(CC3)C2)c(F)cc2c(=O)c(C(=O)O)cn([C@@H]3C[C@@H]3F)c12", "note": "(stereo partly shown) [Compd. 8]", "MIC": 0.20}
{"test_system": "M. avium", "assay": "Antibacterial activity (MIC) against M. avium", "format": "cell-based, Mycobacterium avium", "details": "M. avium N-357; Table 3", "experimental": "(§2) Antibacterial activity of the compounds of the invention was measured in accordance with the method described in the literature of Antimicrob. […] In the tables, “OFLX” is an abbreviation of “OFLOXAIN”.", "units": {"MIC": "µg/mL"}}
{"smiles": "COc1c(N2CC3CCCNC3C2)c(F)cc2c(=O)c(C(=O)O)cn(C3CC3)c12", "note": "(stereo not shown) [Compd. 5]", "MIC": 0.39}
{"smiles": "COc1c(N2CC3CCCNC3C2)c(F)cc2c(=O)c(C(=O)O)cn([C@@H]3C[C@@H]3F)c12", "note": "(stereo partly shown) [Compd. 6]", "MIC": 0.39}
{"smiles": "COc1c(N2CC(N)C3(CC3)C2)c(F)cc2c(=O)c(C(=O)O)cn(C3CC3)c12", "note": "(stereo not shown) [Compd. 7]", "MIC": 0.39}
{"smiles": "COc1c(N2CC(N)C3(CC3)C2)c(F)cc2c(=O)c(C(=O)O)cn([C@@H]3C[C@@H]3F)c12", "note": "(stereo partly shown) [Compd. 8]", "MIC": 1.56}
{"test_system": "M. avium", "assay": "Antibacterial activity (MIC) against M. avium", "format": "cell-based, Mycobacterium avium", "details": "M. avium N-444; Table 3", "experimental": "as §2", "units": {"MIC": "µg/mL"}}
{"smiles": "COc1c(N2CC3CCCNC3C2)c(F)cc2c(=O)c(C(=O)O)cn(C3CC3)c12", "note": "(stereo not shown) [Compd. 5]", "MIC": 1.56}
{"smiles": "COc1c(N2CC3CCCNC3C2)c(F)cc2c(=O)c(C(=O)O)cn([C@@H]3C[C@@H]3F)c12", "note": "(stereo partly shown) [Compd. 6]", "MIC": 1.56}
{"smiles": "COc1c(N2CC(N)C3(CC3)C2)c(F)cc2c(=O)c(C(=O)O)cn(C3CC3)c12", "note": "(stereo not shown) [Compd. 7]", "MIC": 1.56}
{"smiles": "COc1c(N2CC(N)C3(CC3)C2)c(F)cc2c(=O)c(C(=O)O)cn([C@@H]3C[C@@H]3F)c12", "note": "(stereo partly shown) [Compd. 8]", "MIC": 1.56}
{"test_system": "M. avium", "assay": "Antibacterial activity (MIC) against M. avium", "format": "cell-based, Mycobacterium avium", "details": "M. avium N-458; Table 3", "experimental": "as §2", "units": {"MIC": "µg/mL"}}
{"smiles": "COc1c(N2CC3CCCNC3C2)c(F)cc2c(=O)c(C(=O)O)cn(C3CC3)c12", "note": "(stereo not shown) [Compd. 5]", "MIC": 0.78}
{"smiles": "COc1c(N2CC3CCCNC3C2)c(F)cc2c(=O)c(C(=O)O)cn([C@@H]3C[C@@H]3F)c12", "note": "(stereo partly shown) [Compd. 6]", "MIC": 0.78}
{"smiles": "COc1c(N2CC(N)C3(CC3)C2)c(F)cc2c(=O)c(C(=O)O)cn(C3CC3)c12", "note": "(stereo not shown) [Compd. 7]", "MIC": 0.78}
{"smiles": "COc1c(N2CC(N)C3(CC3)C2)c(F)cc2c(=O)c(C(=O)O)cn([C@@H]3C[C@@H]3F)c12", "note": "(stereo partly shown) [Compd. 8]", "MIC": 0.78}
{"test_system": "M. avium", "assay": "Antibacterial activity (MIC) against M. avium", "format": "cell-based, Mycobacterium avium", "details": "M. avium N-472; Table 3", "experimental": "as §2", "units": {"MIC": "µg/mL"}}
{"smiles": "COc1c(N2CC3CCCNC3C2)c(F)cc2c(=O)c(C(=O)O)cn([C@@H]3C[C@@H]3F)c12", "note": "(stereo partly shown) [Compd. 6]", "MIC": 3.13}
{"smiles": "COc1c(N2CC(N)C3(CC3)C2)c(F)cc2c(=O)c(C(=O)O)cn(C3CC3)c12", "note": "(stereo not shown) [Compd. 7]", "MIC": 6.25}
{"smiles": "COc1c(N2CC(N)C3(CC3)C2)c(F)cc2c(=O)c(C(=O)O)cn([C@@H]3C[C@@H]3F)c12", "note": "(stereo partly shown) [Compd. 8]", "MIC": 3.13}
